Where two headings read alike, the source gives them in different places.
Tests used:
SARS-CoV-2 NSP3 Mac1 [1] = target: T1, SARS-CoV-2 NSP3 Mac1 (Severe acute respiratory syndrome coronavirus 2, UniProt P0DTD1); set-up: contains a conserved macrodomain enzyme (Mac1); Differential scanning fluorimetry of Mac1, maximum thermal upshift; conditions: maximum shift over tested concentrations; binder
SARS-CoV-2 NSP3 Mac1 [2] = target: T1, SARS-CoV-2 NSP3 Mac1; format: binding; conditions: for 1-BDC (PanDDA): PanDDA event map, 1 minus background density correction; for 1-BDC (PanDDA) / Refined occupancy: crystal soaking of Mac1; for Refined occupancy: ligand occupancy after refinement (phenix.refine); for HIT*: true hit = binding in crystallographic soaking or the HTRF-based binding assay
SARS-CoV-2 NSP3 Mac1 [3] = target: T1, SARS-CoV-2 NSP3 Mac1; format: binding; set-up: contains a conserved macrodomain enzyme (Mac1)
Method in brief: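 ΔTma values are thermal shifts relative to a co-located DMSO-only control, read with 5 µM Fluorescent Yellow dye. Each compound was tested in triplicate over seven concentrations (two-fold steps, top 1,000 or 100 μM). Spearman correlation of concentration versus ΔTma tested whether the shift was dose-responsive.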

SARS-CoV-2 NSP3 Mac1 [4] = target: T1, SARS-CoV-2 NSP3 Mac1; test: biochemical; format: binding
TARG1 = target: T2, TARG1 (Homo sapiens, UniProt Q9Y530); test: adapted HTRF-based peptide displacement assay (off-target); format: binding
T2 construct: Targ1_HTRF; HTRF assay; pET22b(+); His6, TEV; 1-153; made in house
T2 sequence (Q9Y530 with tags, fused parts or gaps): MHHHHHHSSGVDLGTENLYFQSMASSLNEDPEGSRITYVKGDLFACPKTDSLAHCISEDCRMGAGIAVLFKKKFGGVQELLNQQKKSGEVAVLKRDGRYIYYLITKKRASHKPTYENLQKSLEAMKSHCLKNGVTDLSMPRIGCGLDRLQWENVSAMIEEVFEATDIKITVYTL

MacroD2 = target: T3, MacroD2 (Homo sapiens, UniProt A1Z1Q3); test: as above; format: binding
T3 construct: MacroD2_HTRF; HTRF assay; pET22b(+); His6, TEV, Avi; made in house
T3 sequence (A1Z1Q3 with tags, fused parts or gaps): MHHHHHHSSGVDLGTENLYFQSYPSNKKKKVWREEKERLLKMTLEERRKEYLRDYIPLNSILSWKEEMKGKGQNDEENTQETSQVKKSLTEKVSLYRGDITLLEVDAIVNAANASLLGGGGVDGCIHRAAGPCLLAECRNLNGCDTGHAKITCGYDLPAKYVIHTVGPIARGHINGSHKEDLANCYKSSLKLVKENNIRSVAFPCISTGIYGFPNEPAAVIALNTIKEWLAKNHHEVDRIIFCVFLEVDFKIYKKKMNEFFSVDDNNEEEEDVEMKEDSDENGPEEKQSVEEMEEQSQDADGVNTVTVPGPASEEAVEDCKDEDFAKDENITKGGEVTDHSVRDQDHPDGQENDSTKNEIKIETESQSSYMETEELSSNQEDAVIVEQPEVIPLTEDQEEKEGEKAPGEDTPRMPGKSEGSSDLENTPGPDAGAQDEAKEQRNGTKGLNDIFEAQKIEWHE

CC1(C(=O)O)CCN(C(=O)Cc2c[nH]c3nccc(Cl)c23)C1 (centres unmarked) [F4848, FRESH00014134848]
DSF max dTma (SARS-CoV-2 NSP3 Mac1 [1]): 0.07 °C

O=c1[nH]nc(C2CCCN(c3ncnc4[nH]c5cc(F)ccc5c34)C2)o1 (centres unmarked) [LL1_0017]
DSF max dTma (SARS-CoV-2 NSP3 Mac1 [1]): 0.5 °C
1-BDC (PanDDA) (SARS-CoV-2 NSP3 Mac1 [2]): 0.09
Modeled? (SARS-CoV-2 NSP3 Mac1 [2]; ligand modeled from this dataset, compound concentration 100 mM): TRUE
Refined occupancy (SARS-CoV-2 NSP3 Mac1 [2]): 18
HIT* (SARS-CoV-2 NSP3 Mac1 [2]): Y
Spearman est (compound concentration vs apparent Tm) (SARS-CoV-2 NSP3 Mac1 [3]; DSF dose responsiveness, 1 µM nsp3 mac1, adj p given): 0.18
DSF max dTma (SARS-CoV-2 NSP3 Mac1 [3]; maximal thermal upshift): 0.5 ˚C

CC1C(C(=O)O)CCCN1S(=O)(=O)c1c[nH]c2ncc(Cl)cc12 (centres unmarked) [R3575, REAL300016493575]
DSF max dTma (SARS-CoV-2 NSP3 Mac1 [1]): 0.15 °C

Cc1nnc2n1CC(C(=O)O)N(C(=O)c1ccc(NC(=O)NC3CC3)cc1)C2 (centres unmarked) [Z8539_0037, 8539_0037]
DSF max dTma (SARS-CoV-2 NSP3 Mac1 [1]): 2.36 °C

CC1(C)CCC(C(=O)O)CN1C(=O)c1ncnc2[nH]ccc12 (centres unmarked) [F2804, FRESH00012962804]
DSF max dTma (SARS-CoV-2 NSP3 Mac1 [1]): 0.62 °C

Nc1ncnc(N2CCCC(CCC(=O)O)C2)c1Cl (centres unmarked) [R6134, REAL250003296134]
DSF max dTma (SARS-CoV-2 NSP3 Mac1 [1]): 0.34 °C

O=C1NCCCC1Nc1ncnc(-c2ccccc2)n1 (centres unmarked) [Z9020, ZINC000884519020]
DSF max dTma (SARS-CoV-2 NSP3 Mac1 [1]): 1.01 °C

O=C(Nc1ccc(C(=O)NC2c3cccc(O)c3CC2C(=O)O)c(O)c1)NC1CC1 (centres unmarked) [Z8539_0072]
IC50 (SARS-CoV-2 NSP3 Mac1 [4]; HTRF, Mac1, read-out: affinity): 430 nM
IC50 (SARS-CoV-2 NSP3 Mac1 [4]; IC50, HTRF ADPr-peptide displacement from SARS-CoV-2 Mac1): 400 nM
Ki (SARS-CoV-2 NSP3 Mac1 [4]; Ki estimation from HTRF-derived IC50, Cheng-Prusoff, peptide 400nM, Kd 2.68µM, read-out: Ki***): 300 nM
improvement compared to the best starting fragment (SARS-CoV-2 NSP3 Mac1 [4]; affinity, HTRF): > 400 fold
1-BDC (SARS-CoV-2 NSP3 Mac1 [2]; PanDDA event map 1-BDC, crystal soak, Compound_concentration 100 mM, PanDDA run dmso_34 or nohits_35 per dataset): 0.24
1-BDC (PanDDA) (SARS-CoV-2 NSP3 Mac1 [2]): 0.24
PanDDA hit? (SARS-CoV-2 NSP3 Mac1 [2]; crystal soak, Compound_concentration 100 mM, Echo dispense 40 nl, PanDDA run dmso_34 or nohits_35 per dataset): TRUE
Modeled? (SARS-CoV-2 NSP3 Mac1 [2]; ligand modeled in this dataset, crystal soak, Compound_concentration 100 mM): TRUE
Refined occupancy (SARS-CoV-2 NSP3 Mac1 [2]): 48
HIT* (SARS-CoV-2 NSP3 Mac1 [2]): Y
displacement of the ADPr-conjugated peptide (off-target activity) (TARG1; compound at 50 µM): did not show any off-target activity
displacement of the ADPr-conjugated peptide (off-target activity) (TARG1; compound at 1 mM): did not show any off-target activity
displacement of the ADPr-conjugated peptide (off-target activity) (MacroD2; compound at 50 µM): did not show any off-target activity
displacement of the ADPr-conjugated peptide (off-target activity) (MacroD2; compound at 1 mM): did not show any off-target activity

Cc1nnc(CNc2cnc(N)c(Cl)n2)n1C1CC1 [Z1964, ZINC000893101964]
DSF max dTma (SARS-CoV-2 NSP3 Mac1 [1]): 0.12 °C

O=C(Cc1ccc(-n2cccn2)cc1)OCC1CCCNC1=O (centres unmarked) [Z5505, ZINC000835985505]
DSF max dTma (SARS-CoV-2 NSP3 Mac1 [1]): 0.16 °C

— PMC9926234, “Iterative computational design and crystallographic screening identifies potent inhibitors targeting the Nsp3 macrodomain of SARS-CoV-2” (Proceedings of the National Academy of Sciences of the …, 2023)
